Among the data in patent publication US7579353B2, “Pyridinone derivatives against malaria” (Glaxo Group Limited, priority 2005, dated 2009) are IC50 and solubility values, retold here.

One data set has as its system Plasmodium falciparum. Briefly: In vitro anti-malarial activity against Plasmodium falciparum, IC50 assay / [3H]-hypoxanthine incorporation assay. The conditions noted are these: Erythrocyte, parasitized red blood cells, 48 hours. Type of data set: cell-based. The procedure:
In Vitro Anti-malarial Activity Against Plasmodium falciparum
IC50 Assay/[^3H]-Hypoxanthine Assay
Plasmodium falciparum strains.
The culture medium comprised RPMI 1640 with 25 mM HEPES, sodium bicarbonate and glutamine (GIBCO™ cat. ref.: 52400), supplemented with 10% of pooled human sera AB (Irvine Scientific, cat. ref.: 5009) and HT supplement (0.15 mM hypoxanthine and 24 μM thymidine), (GIBCO™ cat. ref.: 41065). Human sera were decomplemented 30 min. at 56° C., aliquoted and stored frozen at −20° C. until use in this culture medium.
Red blood cells O+ stock suspensions were prepared from whole blood bags coming from incomplete blood donation, provided by the Spanish Red Cross (<25 days after sampling). This “whole blood” was aliquoted and stored at 4° C.
To prepare red blood cells for the assay, the whole blood was centrifuged and washed 3 times with RPMI without serum. The upper phase, containing white blood cells was removed. The washed red blood cells were kept as a 50% suspension in complete medium. The prepared cells were stored at 4° C. and were employed in the assay at any time up to 4 days after preparation.
Test compounds were dissolved at 2 mg/ml in 100% DMSO on the day of the assay. If necessary, complete dissolution was achieved by gentle heating (the mixture was heated at a temperature <37° C.) and sonication (sonication bath).
For IC50 determinations, 10 serial 2-fold dilutions were prepared in complete medium in the presence of a constant amount of DMSO.
Plasmodium falciparum strains were maintained in complete medium at an hematocrit of 5% in continuous culture using a method adapted from Trager and Jensen (1, 2).
The parasitemia was calculated by counting the percentage of parasitized erythrocytes by optical microscopy. Thin films of blood were made every day from each culture flask, fixed with methanol and stained for 10 min. in Giemsa (Merck, cat ref.: 1.09204) at 10% in buffered water pH 7.2. The glass slides were observed and counted with an optical microscope (Nikon, Eclipse E200) equipped with a 100× immersion oil objective.
The culture was maintained at an hematocrit of 5%, with a daily change of medium and was diluted when parasitemia had reached about 5%.
[^3H] Hypoxanthine incorporation assay was conducted using a method adapted from Desjardins et al. (3). The assays were performed in 96 wells flat bottom microplates.
1. Serial dilutions of the test compounds (50 μl of a 5× solution/well) were deposited in duplicate. Compounds of the invention were tested in this assay. Chloroquine and Atovaquone were used as control compounds for each assay.
3. [^3H]-Hypoxanthine (Amersham Biosciences, cat. ref.: TRK74) was added extemporaneously to the inoculum suspension at a concentration of 1 μCi/ml (equating to […]). 200 μl of the resulting suspension was distributed into each well (other than the control well H12 described below) leading to a final volume of 250 μl per well, at 2% of hematocrit and 0.5% of parasitemia/well.
4. In each plate, 2 columns were reserved for control wells: • Column 11: Positive control wells: PRBCs with 0.2% DMSO—(i) to determine DMSO solvent effect on parasite growth (at a final concentration of 0.2%) and (ii) to compare with cultures treated with test compounds. • Column 12 (comprising wells A12-H12): • A12-D12—Background value wells: Uninfected RBCs—blank control to obtain the background reading from RBCs without parasites. • E12-G12—Solvent effect wells: PRBCs without DMSO—to determine DMSO solvent effect on PRBCs by comparing these wells with column 11 wells. • H12-Non-radioactive well: PRBCs with cold hypoxanthine—(i) to carry out a thin blood film to determine parasitemia value after incubation by microscopy and (ii) to ensure that the parasites have grown properly during the assay. (200 μl of inoculum suspension was prepared as described above (Items 2 and 3) but with non-tritiated hypoxanthine instead of [3H]-hypoxanthine, then added to this well to a final volume of 250 μl). […]

A short description of data set [1]: Compound solubility determination (gross and equilibrium solubility; FaSSIF, FeSSIF, pH 7.4 PBS, pH 1.0 0.1N HCl, pH 4.5 sodium citrate). Type of data set: physicochemical. The note with it: thermodynamic from solid. The procedure: Compound Solubility Determination
An amount of 3 mg solid compound with LC-MS purity ≧95% was required. This amount was split between 3 different glass vials (1.8 ml volume each), placing 1 mg compound into each one.
Organic solvents of HPLC grade were used. Ultra pure water (Milli-Q grade) was used. Buffers were prepared with ultra pure water and filtered using 0.45μ cameo filters. The compositions of each solvent employed in this assay are described below (part III).
2. Determination of Equilibrium Solubility (Assuming Chemical Stability in the Desired Solvent is not a Problem).
For each of the three vial samples prepared as described above, in which the amount of compound was totally dissolved, the following procedure was subsequently carried out: • a) A small amount (approx. 0.1 mg) of additional solid compound was added to the vial to maintain an excess of the compound in the mixture in the form of undissolved solid. • b) The samples were magnetically stirred for 24 hr. If required, additional solid compound (0.1 mg) was added to maintain excess of it and then the samples were stirred again. • c) Then the samples were filtered (Millipore Milex filters nylon 0.2 um) and three aliquots were taken (one from each of the three vials) and analysed by LC-MS. • d) The pH of the final solution in each sample was measured with a pH-meter (WTW pH330i and a pH-electrode Sentix 41).
3. LC-MS Assay for Analytical Quantification
All filtered aliquots were analysed by LC-MS. The analysis was carried out with a Luna 5 μC18 (2) column 4.6×150 mm, using a HP1100 HPLC instrument interfaced with a Waters ZMD-2000 MS spectrometer. The concentration of the final sample as prepared above was calculated from that of a reference calibration curve obtained from serial dilutions of a 2 mM solution of the compound under investigation in DMSO (Aldrich cat. ref.: 27685-5) stock solution.
The analysis of all LC-MS data was performed with MassLynx 3.4 software. Statistical and graphic analysis of data was performed using Microsoft Excel. The concentration (uM) and solubility (ug/ml) for each compound was calculated using the peak areas from the sample and those from the calibration curve.
A) FaSSIF is a solvent which simulates the Fasted State of the Intestinal Fluid. (FaSSIF: Fasted State Simulated Intestinal Fluid).
B) FeSSIF is a solvent which simulates the Fed State of the Intestinal Fluid. (FeSSIF: Fed State Simulated Intestinal Fluid).
C) Solubility at pH 7.4 was determined in phosphate buffered saline (PBS) (Fluka cat. ref: 79383)
D) Solubility at pH 1.0 was determined in 0.1N HCl solution (Scharlau AL0744010C)
E) Solubility at pH 4.5 was determined in sodium citrate 0.5M solution. (Aldrich 25, 127-5)

Setting [2] is: 0.1N HCl solution, simulated gastric fluid, pH 1 (HCl), read-out: Solubility at pH 1 (HCl).
The mark [3] stands for this setting: FaSSIF (fasted state simulated intestinal fluid), fassif, read-out: Solubility in FaSSIF.
Setting [4] is: FeSSIF (fed state simulated intestinal fluid), fessif, read-out: Solubility in FeSSIF.
Where [5] appears, read: phosphate buffered saline (PBS), aqueous buffer, pH 7.4 (PBS), read-out: Solubility at pH 7.4 (PBS).
[6] abbreviates: sodium citrate 0.5M solution, aqueous buffer, pH 4.5 (Na citrate), read-out: Solubility at pH 4.5 (Na citrate).

Structures are written as SMILES. In brackets after ≈: the same amount, converted by molar mass. Read-outs that look alike come from different tables or passages of the source. A value given as a limit tells only on which side of the number the result lay.

Molecule `Cc1[nH]c(C)c(-c2ccccn2)c(=O)c1Br` [Compound W, 5′-Bromo-2′,6′-dimethyl-2,3′-bipyridin-4′-(1′H)-one, reference compound] had an IC50 with Plasmodium falciparum of 0.5 µg/mL (≈ 1.79 µM). Still for that read-out and setting: the result for `Cc1[nH]c(C)c(-c2ccc(Oc3ccc(OC(F)(F)F)cc3)cc2)c(=O)c1Cl` [Compound Y, 3-chloro-5-(4-(4-trifluoromethoxyphenoxy)phenyl)-2,6-dimethylpyridin-4(1H)-one, reference compound] reads under 0.125 µg/mL. The same measure, in the same setting: the result for `Cc1[nH]c(C)c(-c2ccc(Oc3cccc(C(F)(F)F)c3)cc2)c(=O)c1Cl` [Compound Z, 3-Chloro-2,6-dimethyl-5-(4-{[3-(trifluoromethyl)phenyl]oxy}phenyl)-4(1H)pyridinone, reference compound] reads under 0.125 µg/mL; that for `Cc1[nH]c(C)c(-c2ccc(OCc3ccc(OC(F)(F)F)cc3)nc2)c(=O)c1Br` [Example 1, 5-Bromo-2,6-dimethyl-6′-{[4-(trifluoromethoxy)benzyl]oxy}-3,3′-bipyridin-4(1H)-one], under 0.125 µg/mL.

`Cc1[nH]c(C)c(-c2ccc(OCc3cccc(C(F)(F)F)c3)nc2)c(=O)c1Br` [Example 2, 5-Bromo-2,6-dimethyl-6′-{[3-(trifluoromethyl)benzyl]oxy}-3,3′-bipyridin-4(1H)-one]: the IC50 in the data set on Plasmodium falciparum is under 0.125 µg/mL. Still for that read-out and setting: the result for `Cc1[nH]c(C)c(-c2ccc(OCc3ccc(C(F)(F)F)cc3)nc2)c(=O)c1Br` [Example 3, 5-Bromo-2,6-dimethyl-6′-{[4-(trifluoromethyl)benzyl]oxy}-3,3′-bipyridin-4(1H)-one] reads under 0.125 µg/mL; that for `Cc1[nH]c(C)c(-c2ccc(OCc3ccccc3C(F)(F)F)nc2)c(=O)c1Br` [Example 4, 5-Bromo-2,6-dimethyl-6′-{[2-(trifluoromethyl)benzyl]oxy}-3,3′-bipyridin-4(1H)-one], under 0.125 µg/mL; that for `Cc1[nH]c(C)c(-c2ccc(OCc3cc(C(F)(F)F)cc(C(F)(F)F)c3)nc2)c(=O)c1Br` [Example 5, 5-Bromo-2,6-dimethyl-6′-{[3,5-bis(trifluoromethyl)benzyl]oxy}-3,3′-bipyridin-4(1H)-one], under 0.125 µg/mL. On the same count and under the same terms, the result for `Cc1[nH]c(C)c(-c2ccc(OCc3ccc(F)cc3)nc2)c(=O)c1Br` [Example 6, 5-Bromo-6′-{[4-fluorobenzyl]oxy}-2,6-dimethyl-3,3′-bipyridin-4(1H)-one] reads under 0.125 µg/mL.

Turning to `Cc1[nH]c(C)c(-c2ccc(OCc3cc(F)cc(F)c3)nc2)c(=O)c1Br` [Example 7, 5-Bromo-6′-{[3,5-difluorobenzyl]oxy}-2,6-dimethyl-3,3′-bipyridin-4(1H)-one], the IC50 with Plasmodium falciparum is under 0.125 µg/mL.

In the data set with Plasmodium falciparum, `Cc1[nH]c(C)c(-c2ccc(OCc3ccc(OC(F)(F)F)cc3)nc2)c(=O)c1Cl` [Example 8, 5-Chloro-2,6-dimethyl-6′-{[4-(trifluoromethoxy)benzyl]oxy}-3,3′-bipyridin-4(1H)-one] returned an IC50 of under 0.125 µg/mL. Still for that read-out and setting: as for `Cc1[nH]c(C)c(-c2ccc(OCc3cccc(C(F)(F)F)c3)nc2)c(=O)c1Cl` [Example 9, 5-Chloro-2,6-dimethyl-6′-{[3-(trifluoromethyl)benzyl]oxy}-3,3′-bipyridin-4(1H)-one], the figure is under 0.125 µg/mL; as for `Cc1[nH]c(C)c(-c2ccc(OCc3ccccc3C(F)(F)F)nc2)c(=O)c1Cl` [Example 11, 5-Chloro-2,6-dimethyl-6′-{[2-(trifluoromethyl)benzyl]oxy}-3,3′-bipyridin-4(1H)-one], under 0.125 µg/mL. The same measure, in the same setting: as for `Cc1[nH]c(C)c(-c2ccc(OCc3cc(C(F)(F)F)cc(C(F)(F)F)c3)nc2)c(=O)c1Cl` [Example 12, 5-Chloro-2,6-dimethyl-6′-{[3,5-bis(trifluoromethyl)benzyl]oxy}-3,3′-bipyridin-4(1H)-one], the figure is under 0.125 µg/mL.

Consider `Cc1[nH]c(C)c(-c2ccc(OCc3ccc(F)cc3)nc2)c(=O)c1Cl` [Example 13, 5-Chloro-6′-{[4-fluorobenzyl]oxy}-2,6-dimethyl-3,3′-bipyridin-4(1H)-one], for which the IC50 in the data set with Plasmodium falciparum is under 0.125 µg/mL.

For the molecule `Cc1[nH]c(C)c(-c2ccc(OCc3cc(F)cc(F)c3)nc2)c(=O)c1Cl` [Example 14, 5-Chloro-6′-{[3,5-difluorobenzyl]oxy}-2,6-dimethyl-3,3′-bipyridin-4(1H)-one], in the data set with Plasmodium falciparum, the IC50 was under 0.125 µg/mL.

For the molecule `Cc1nc(C)c(-c2ccc(-c3ccc(Cl)cc3)cc2)c(O)c1Br` [comparator X], the solubility at 24 h in data set [1] (setting [2]) was under 1 µg/mL; in data set [1] (setting [3]), 5 to 10 µg/mL (≈ 12.9 to 25.7 µM); in data set [1] (setting [4]) it was 5 to 10 µg/mL (≈ 12.9 to 25.7 µM); in data set [1] (setting [5]) it was under 1 µg/mL; in data set [1] (setting [6]) it was under 1 µg/mL. Turning to `Cc1[nH]c(C)c(-c2ccc(Oc3ccc(OC(F)(F)F)cc3)cc2)c(=O)c1Cl` [comparator Y], the solubility at 24 h in data set [1] (setting [2]) was under 1 µg/mL; in data set [1] (setting [3]), under 1 µg/mL; in data set [1] (setting [4]), 1 to 5 µg/mL (≈ 2.44 to 12.2 µM); in data set [1] (setting [5]), under 1 µg/mL; in data set [1] (setting [6]) it was under 1 µg/mL.

Turning to `Cc1[nH]c(C)c(-c2ccc(Oc3cccc(C(F)(F)F)c3)cc2)c(=O)c1Cl` [comparator Z], the solubility at 24 h in data set [1] (aqueous buffer, pH 4.5 (Na citrate), read-out: Solubility at pH 4.5 (Na citrate)) is under 1 µg/mL; in data set [1] (aqueous buffer, pH 7.4 (PBS), read-out: Solubility at pH 7.4 (PBS)), under 1 µg/mL; in data set [1] (fassif, read-out: Solubility in FaSSIF) it was under 1 µg/mL; in data set [1] (fessif, read-out: Solubility in FeSSIF), 1 to 5 µg/mL (≈ 2.54 to 12.7 µM); in data set [1] (simulated gastric fluid, pH 1 (HCl), read-out: Solubility at pH 1 (HCl)) it was under 1 µg/mL.

As a reminder, the IC50 is the midpoint of a concentration-inhibition curve. Low values mean inhibition by little substance, high ones a need for much substance. Broadly, the solubility is the dissolved amount per volume that the medium holds.
